Measurements taken from patent US20130005811A1, “ANTIMICROBIAL TREATMENT FOR SEEDS AND SPROUTS” (priority 2010, published 2013).

Columns and labels:
watermelon seeds = test: Germination of treated watermelon seeds; details: 0.05% SDS alone (negative control)
[1] = tested on: Clavibacter michiganenses subsp. michiganenses (CMM); details: 0.5% levulinic acid, 30° C., 30 hr, OD 600 nm
Protocol: (§1) The effect of levulinic acid on in vitro growth of a range of phytobacteria was determined using a Microbiology Reader BioscreenC (Transgalactic Ltd.; Helsinki, Finland) according to manufacturer's instructions. Briefly, inoculum was generated by transferring one colony of each bacterium from a three-day-old nutrient agar culture (Difco) to 5 ml of nutrient broth. Broth cultures were incubated overnight at 30° C. with continuous agitation and cells from 1 ml of broth were harvested by centrifugation (16,200×g) for 3 min and adjusted to about 3.0×10^8 CFU/ml (ODA600 nm=0.3) spectrophotometrically (Spectronic 20, Bausch and Lomb, Rochester, N.Y.). Cell suspensions were ten-fold serially diluted to desired concentrations, and 10 μl of each suspension was transferred to a single well in a honeycomb plate (Oy Growth Curves AB Ltd., Helsinki, Finland) containing 190 μl of nutrient broth amended with 3%, 1% or 0.5% levulinic acid. This yielded a starting suspension of about 1.5×10^4 CFU/ml. The microplate containing ten replicates of each bacterium×levulinic acid concentration treatment was incubated at 30° C. with continuous agitation in a BioscreenC MBR incubator/reader. Optical density measurements of each well were taken at a wavelength of 600 nm at 30 min intervals for 30 hr.

[2] = tested on: Acidovorax avenae subsp. citrulli (Aac)
Protocol: (§2) The ability of combinations of levulinic acid and SDS to kill a range of plant pathogenic bacteria in vitro was tested. Nutrient broth liquid cultures were supplemented with 3%, 1%, or 0.5% levulinic acid. A range of gram-negative plant pathogenic bacteria was screened, including Acidovorax avenae subsp. citrulli, Erwinia (Pectobacterium) carotovora subsp. carotovora, Xanthomonas campestris pv. campestris, Xanthomonas axonopodis pv. vesicatoria and Pantoea ananatis subsp. ananatis. […] Each bacterium was evaluated 10 times and the experiment was repeated.
as §1

[3] = tested on: Xanthomonas campestris pv. campestris (XCC)
Protocol: as §2, §1

Pantoea ananatis (PNA) = tested on: Pantoea ananatis (PNA)
Protocol: as §2, §1

[4] = tested on: Erwinia carotovora subsp. carotovora (ECC)
Protocol: as §2, §1

[5] = tested on: Xanthomonas campestris pv. vesicatoria (XCV)
Protocol: as §2, §1

[6] = 0.5% levulinic acid, 30° C., 30 hr, OD 600 nm

SMILES	Germination percentage (watermelon seeds)	In vitro growth in nutrient broth [1]	Kind of action (broth cultures plated after incubation) [2]	Number of viable cells in the liquid broth ([2]; 0.5% levulinic acid)	In vitro growth in nutrient broth [2, 6]	Kind of action (broth cultures plated after incubation) [3]	Number of viable cells in the liquid broth ([3]; 0.5% levulinic acid)	In vitro growth in nutrient broth [3, 6]	Kind of action (broth cultures plated after incubation) (Pantoea ananatis (PNA))	Number of viable cells in the liquid broth (Pantoea ananatis (PNA); 0.5% levulinic acid)	In vitro growth in nutrient broth (Pantoea ananatis (PNA); [6])	Kind of action (broth cultures plated after incubation) [4]	Number of viable cells in the liquid broth ([4]; 0.5% levulinic acid)	In vitro growth in nutrient broth [4, 6]	Kind of action (broth cultures plated after incubation) [5]	Number of viable cells in the liquid broth ([5]; 0.5% levulinic acid)	In vitro growth in nutrient broth [5, 6]
CCCCCCCCCCCCOS(=O)(=O)[O-].[Na+] [0.05% SDS, sodium dodecyl sulfate]	89.25%																
CC(=O)CCC(=O)O [levulinic acid, Levulinic acid]		prevented the growth	bactericidal rather than bacteristatic	killed the pathogens	prevented the growth	bactericidal rather than bacteristatic	killed the pathogens	prevented the growth	bactericidal rather than bacteristatic	killed the pathogens	prevented the growth	bactericidal rather than bacteristatic	killed the pathogens	prevented the growth	bactericidal rather than bacteristatic	killed the pathogens	prevented the growth
